Measured values reported in US9828360B2 (Array BioPharma Inc., priority 2012, dated 2017).

Key:
SIK = molecular target: T1, SIK (Homo sapiens, UniProt P57059); test: KinaseProfiler off-target kinase profiling; format: biochemical; settings: 10 μM, ATP near Km
T1 construct: purchased Millipore, Inc. (KinaseProfiler service)
Method: (§1) A representative compound of the invention (Example 48) was tested for off-target kinase activity at a concentration of 10 μM by Millipore, Inc. in their KinaseProfiler™ service against all the kinases available in their full kinase panel. The compound was run in duplicate at a concentration of ATP near the Km for each individual kinase according to Millipore's specifications. The results are shown in Table B. Data are reported as percent of control (POC) and are the average of the two replicates.

AURKA = molecular target: T2, AURKA (Homo sapiens, UniProt O14965); test: KinaseProfiler off-target kinase profiling; format: biochemical; settings: 10 μM, ATP near Km
T2 construct: purchased Millipore, Inc. (KinaseProfiler service)
Method: as §1

TSSK1 = molecular target: T3, TSSK1 (Homo sapiens, UniProt Q9BXA7); test: KinaseProfiler off-target kinase profiling; format: biochemical; settings: 10 μM, ATP near Km
T3 construct: purchased Millipore, Inc. (KinaseProfiler service)
Method: as §1

Rsk2 = molecular target: T4, Rsk2 (Homo sapiens, UniProt P51812); test: KinaseProfiler off-target kinase profiling; format: biochemical; settings: 10 μM, ATP near Km
T4 construct: purchased Millipore, Inc. (KinaseProfiler service)
Method: as §1

Syk = molecular target: T5, Syk (Homo sapiens, UniProt P43405); test: KinaseProfiler off-target kinase profiling; format: biochemical; settings: 10 μM, ATP near Km
T5 construct: purchased Millipore, Inc. (KinaseProfiler service)
Method: as §1

ZAP-70 = molecular target: T6, ZAP-70 (Homo sapiens, UniProt P43403); test: KinaseProfiler off-target kinase profiling; format: biochemical; settings: 10 μM, ATP near Km
T6 construct: purchased Millipore, Inc. (KinaseProfiler service)
Method: as §1

MuSK = molecular target: T7, MuSK (Homo sapiens, UniProt O15146); test: KinaseProfiler off-target kinase profiling; format: biochemical; settings: 10 μM, ATP near Km
T7 construct: purchased Millipore, Inc. (KinaseProfiler service)
Method: as §1

JAK2 = molecular target: T8, JAK2 (Homo sapiens, UniProt O60674); test: KinaseProfiler off-target kinase profiling; format: biochemical; settings: 10 μM, ATP near Km
T8 construct: purchased Millipore, Inc. (KinaseProfiler service)
Method: as §1

PhKgamma2 = molecular target: T9, PhKgamma2 (Homo sapiens, UniProt P15735); test: KinaseProfiler off-target kinase profiling; format: biochemical; settings: 10 μM, ATP near Km
T9 construct: purchased Millipore, Inc. (KinaseProfiler service)
Method: as §1

Mer = molecular target: T10, Mer (Homo sapiens, UniProt Q12866); test: KinaseProfiler off-target kinase profiling; format: biochemical; settings: 10 μM, ATP near Km
T10 construct: purchased Millipore, Inc. (KinaseProfiler service)
Method: as §1

CK1_y = test: KinaseProfiler off-target kinase profiling; format: biochemical; settings: 10 μM, ATP near Km
Method: as §1

Hck = molecular target: T11, Hck (Homo sapiens, UniProt P08631); test: KinaseProfiler off-target kinase profiling; format: biochemical; settings: 10 μM, ATP near Km
T11 construct: purchased Millipore, Inc. (KinaseProfiler service)
Method: as §1

IRAK1 = molecular target: T12, IRAK1 (Homo sapiens, UniProt P51617); test: KinaseProfiler off-target kinase profiling; format: biochemical; settings: 10 μM, ATP near Km
T12 construct: purchased Millipore, Inc. (KinaseProfiler service)
Method: as §1

FAK2 = molecular target: T13, FAK2 (Homo sapiens, UniProt Q14289); test: KinaseProfiler off-target kinase profiling; format: biochemical; settings: 10 μM, ATP near Km
T13 construct: purchased Millipore, Inc. (KinaseProfiler service)
Method: as §1

MKK7beta = molecular target: T14, MKK7beta (Homo sapiens, UniProt O14733); test: KinaseProfiler off-target kinase profiling; format: biochemical; settings: 10 μM, ATP near Km
T14 construct: purchased Millipore, Inc. (KinaseProfiler service)
Method: as §1

PKCalpha = molecular target: T15, PKCalpha (Homo sapiens, UniProt P17252); test: KinaseProfiler off-target kinase profiling; format: biochemical; settings: 10 μM, ATP near Km
T15 construct: purchased Millipore, Inc. (KinaseProfiler service)
Method: as §1

AKT3 = molecular target: T16, AKT3 (Homo sapiens, UniProt Q9Y243); test: KinaseProfiler off-target kinase profiling; format: biochemical; settings: 10 μM, ATP near Km
T16 construct: purchased Millipore, Inc. (KinaseProfiler service)
Method: as §1

PKD1 = molecular target: T17, PKD1 (Homo sapiens, UniProt Q15139); test: KinaseProfiler off-target kinase profiling; format: biochemical; settings: 10 μM, ATP near Km
T17 construct: purchased Millipore, Inc. (KinaseProfiler service)
Method: as §1

p38gamma = molecular target: T18, p38gamma (Homo sapiens, UniProt P53778); test: KinaseProfiler off-target kinase profiling; format: biochemical; settings: 10 μM, ATP near Km
T18 construct: purchased Millipore, Inc. (KinaseProfiler service)
Method: as §1

JAK3 = molecular target: T19, JAK3 (Homo sapiens, UniProt P52333); test: KinaseProfiler off-target kinase profiling; format: biochemical; settings: 10 μM, ATP near Km
T19 construct: purchased Millipore, Inc. (KinaseProfiler service)
Method: as §1

mTOR = molecular target: T20, mTOR (Homo sapiens, UniProt P42345); test: KinaseProfiler off-target kinase profiling; format: biochemical; settings: 10 μM, ATP near Km
T20 construct: purchased Millipore, Inc. (KinaseProfiler service)
Method: as §1

DAPK3 = molecular target: T21, DAPK3 (Homo sapiens, UniProt O43293); test: KinaseProfiler off-target kinase profiling; format: biochemical; settings: 10 μM, ATP near Km
T21 construct: purchased Millipore, Inc. (KinaseProfiler service)
Method: as §1

GSK3alpha = molecular target: T22, GSK3alpha (Homo sapiens, UniProt P49840); test: KinaseProfiler off-target kinase profiling; format: biochemical; settings: 10 μM, ATP near Km
T22 construct: purchased Millipore, Inc. (KinaseProfiler service)
Method: as §1

Tie2 = molecular target: T23, Tie2 (Homo sapiens, UniProt Q02763); test: KinaseProfiler off-target kinase profiling; format: biochemical; settings: 10 μM, ATP near Km
T23 construct: purchased Millipore, Inc. (KinaseProfiler service)
Method: as §1

Yes = molecular target: T24, Yes (Homo sapiens, UniProt P07947); test: KinaseProfiler off-target kinase profiling; format: biochemical; settings: 10 μM, ATP near Km
T24 construct: purchased Millipore, Inc. (KinaseProfiler service)
Method: as §1

WNK3 = molecular target: T25, WNK3 (Homo sapiens, UniProt Q9BYP7); test: KinaseProfiler off-target kinase profiling; format: biochemical; settings: 10 μM, ATP near Km
T25 construct: purchased Millipore, Inc. (KinaseProfiler service)
Method: as §1

DAPK1 = molecular target: T26, DAPK1 (Homo sapiens, UniProt P53355); test: KinaseProfiler off-target kinase profiling; format: biochemical; settings: 10 μM, ATP near Km
T26 construct: purchased Millipore, Inc. (KinaseProfiler service)
Method: as §1

WNK2 = molecular target: T27, WNK2 (Homo sapiens, UniProt Q9Y3S1); test: KinaseProfiler off-target kinase profiling; format: biochemical; settings: 10 μM, ATP near Km
T27 construct: purchased Millipore, Inc. (KinaseProfiler service)
Method: as §1

NEK7 = molecular target: T28, NEK7 (Homo sapiens, UniProt Q8TDX7); test: KinaseProfiler off-target kinase profiling; format: biochemical; settings: 10 μM, ATP near Km
T28 construct: purchased Millipore, Inc. (KinaseProfiler service)
Method: as §1

PrKX = molecular target: T29, PrKX (Homo sapiens, UniProt P51817); test: KinaseProfiler off-target kinase profiling; format: biochemical; settings: 10 μM, ATP near Km
T29 construct: purchased Millipore, Inc. (KinaseProfiler service)
Method: as §1

TrkA [1] = molecular target: T30, TrkA (Homo sapiens, UniProt P04629); test: TrkA LanthaScreen Eu Kinase Binding Assay; design: 6HIS tagged cytoplasmic domain from Invitrogen, Cat. No. PV3144; purchased Invitrogen PV3144; settings: averaged IC50 values, read-out: TrkA Enzyme IC50
Method: TrkA binding activity was determined in a TrkA LanthaScreen™ Eu Kinase Binding Assay. 5 nM His-tagged recombinant human TrkA (6HIS tagged cytoplasmic domain from Invitrogen, Cat. No. PV3144) was incubated with 4 nM Alexa-Fluor® Tracer 236 (Invitrogen Cat. No. PV5592), 2 nM biotinylated anti-His (Invitrogen Cat. No. PV6090), and 2 nM europium-labeled Streptavidin (Invitrogen Cat. No. PV5899), in buffer (25 mM MOPS, pH 7.5, 5 mM MgCl2, 0.005% Triton X-100). Three fold serial dilutions of compounds of the invention in DMSO were added to a final percentage of 2% DMSO. After 60-minute incubation at 22° C., the reaction was measured using the EnVision mutlimode plate reader (PerkinElmer) via TR-FRET dual wavelength detection at […]. The percent of control was calculated using a ratiometric emission factor. The IC50 values were determined by fitting a four parameter model to the percent of control data.
Table A provides averaged IC50 values for compounds of the invention when tested in the assay of Example A, where A represents an averaged IC50 value <100 nM; and B represents an averaged IC50 value from 100 to 1,000 nM.

TrkA [2] = molecular target: T30, TrkA; test: KinaseProfiler off-target kinase profiling; format: biochemical; design: purchased Millipore, Inc. (KinaseProfiler service); settings: 10 μM, ATP near Km
Method: as §1
Target sequence in this assay (P04629 33-796): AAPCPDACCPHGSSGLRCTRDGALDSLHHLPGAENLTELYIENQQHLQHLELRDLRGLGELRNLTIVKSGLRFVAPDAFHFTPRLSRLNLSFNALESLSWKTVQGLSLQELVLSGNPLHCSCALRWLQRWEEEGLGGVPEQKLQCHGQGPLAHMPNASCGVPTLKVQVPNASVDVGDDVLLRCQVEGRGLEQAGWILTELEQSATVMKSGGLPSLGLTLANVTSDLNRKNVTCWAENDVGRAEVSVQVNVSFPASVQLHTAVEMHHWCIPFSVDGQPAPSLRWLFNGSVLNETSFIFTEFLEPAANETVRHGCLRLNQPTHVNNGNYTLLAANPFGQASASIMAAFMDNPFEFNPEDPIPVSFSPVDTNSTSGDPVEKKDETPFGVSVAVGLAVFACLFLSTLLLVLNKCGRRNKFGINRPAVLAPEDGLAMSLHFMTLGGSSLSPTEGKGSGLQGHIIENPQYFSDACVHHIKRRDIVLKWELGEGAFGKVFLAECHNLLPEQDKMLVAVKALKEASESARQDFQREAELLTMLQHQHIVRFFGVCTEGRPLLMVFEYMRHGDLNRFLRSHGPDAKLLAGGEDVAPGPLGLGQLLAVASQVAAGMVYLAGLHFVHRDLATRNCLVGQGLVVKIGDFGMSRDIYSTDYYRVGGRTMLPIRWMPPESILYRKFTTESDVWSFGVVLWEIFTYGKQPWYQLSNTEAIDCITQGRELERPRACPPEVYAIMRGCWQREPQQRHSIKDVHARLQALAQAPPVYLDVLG

T2 sequence (O14965 whole entry): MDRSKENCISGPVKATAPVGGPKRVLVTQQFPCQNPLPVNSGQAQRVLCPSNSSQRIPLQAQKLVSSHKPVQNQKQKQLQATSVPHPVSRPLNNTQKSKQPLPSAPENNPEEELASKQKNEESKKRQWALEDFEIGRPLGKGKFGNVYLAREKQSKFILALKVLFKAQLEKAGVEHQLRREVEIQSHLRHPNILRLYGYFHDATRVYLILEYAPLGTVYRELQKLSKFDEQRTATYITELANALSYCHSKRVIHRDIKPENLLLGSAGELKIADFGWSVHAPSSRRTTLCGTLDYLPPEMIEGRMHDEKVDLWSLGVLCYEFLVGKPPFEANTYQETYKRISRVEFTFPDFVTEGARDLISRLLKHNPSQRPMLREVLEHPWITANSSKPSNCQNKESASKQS
T11 sequence (P08631 whole entry): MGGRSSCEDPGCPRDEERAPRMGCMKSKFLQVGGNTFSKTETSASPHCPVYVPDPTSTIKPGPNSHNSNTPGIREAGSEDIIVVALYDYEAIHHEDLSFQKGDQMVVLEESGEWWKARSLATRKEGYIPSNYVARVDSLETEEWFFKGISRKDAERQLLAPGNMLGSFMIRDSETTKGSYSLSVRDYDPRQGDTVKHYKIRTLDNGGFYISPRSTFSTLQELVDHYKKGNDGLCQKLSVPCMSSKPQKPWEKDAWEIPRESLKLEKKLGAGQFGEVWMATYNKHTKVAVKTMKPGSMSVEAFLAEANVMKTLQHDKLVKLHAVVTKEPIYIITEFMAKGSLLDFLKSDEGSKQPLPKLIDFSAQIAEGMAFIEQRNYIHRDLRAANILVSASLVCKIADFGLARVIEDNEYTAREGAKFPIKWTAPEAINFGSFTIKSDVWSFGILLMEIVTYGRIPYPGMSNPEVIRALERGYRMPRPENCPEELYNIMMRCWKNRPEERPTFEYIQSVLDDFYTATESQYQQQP
T3 sequence (Q9BXA7 whole entry): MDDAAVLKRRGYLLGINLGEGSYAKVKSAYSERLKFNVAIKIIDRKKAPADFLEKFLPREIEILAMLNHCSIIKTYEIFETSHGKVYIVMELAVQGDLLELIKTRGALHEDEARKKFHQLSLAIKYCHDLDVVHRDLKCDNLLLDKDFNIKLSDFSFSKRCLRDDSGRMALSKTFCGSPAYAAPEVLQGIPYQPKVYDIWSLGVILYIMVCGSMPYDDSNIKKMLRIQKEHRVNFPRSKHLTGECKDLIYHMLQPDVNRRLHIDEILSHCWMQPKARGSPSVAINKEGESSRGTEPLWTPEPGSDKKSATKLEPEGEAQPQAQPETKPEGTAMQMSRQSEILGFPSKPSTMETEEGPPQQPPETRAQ
T27 sequence (Q9Y3S1 whole entry): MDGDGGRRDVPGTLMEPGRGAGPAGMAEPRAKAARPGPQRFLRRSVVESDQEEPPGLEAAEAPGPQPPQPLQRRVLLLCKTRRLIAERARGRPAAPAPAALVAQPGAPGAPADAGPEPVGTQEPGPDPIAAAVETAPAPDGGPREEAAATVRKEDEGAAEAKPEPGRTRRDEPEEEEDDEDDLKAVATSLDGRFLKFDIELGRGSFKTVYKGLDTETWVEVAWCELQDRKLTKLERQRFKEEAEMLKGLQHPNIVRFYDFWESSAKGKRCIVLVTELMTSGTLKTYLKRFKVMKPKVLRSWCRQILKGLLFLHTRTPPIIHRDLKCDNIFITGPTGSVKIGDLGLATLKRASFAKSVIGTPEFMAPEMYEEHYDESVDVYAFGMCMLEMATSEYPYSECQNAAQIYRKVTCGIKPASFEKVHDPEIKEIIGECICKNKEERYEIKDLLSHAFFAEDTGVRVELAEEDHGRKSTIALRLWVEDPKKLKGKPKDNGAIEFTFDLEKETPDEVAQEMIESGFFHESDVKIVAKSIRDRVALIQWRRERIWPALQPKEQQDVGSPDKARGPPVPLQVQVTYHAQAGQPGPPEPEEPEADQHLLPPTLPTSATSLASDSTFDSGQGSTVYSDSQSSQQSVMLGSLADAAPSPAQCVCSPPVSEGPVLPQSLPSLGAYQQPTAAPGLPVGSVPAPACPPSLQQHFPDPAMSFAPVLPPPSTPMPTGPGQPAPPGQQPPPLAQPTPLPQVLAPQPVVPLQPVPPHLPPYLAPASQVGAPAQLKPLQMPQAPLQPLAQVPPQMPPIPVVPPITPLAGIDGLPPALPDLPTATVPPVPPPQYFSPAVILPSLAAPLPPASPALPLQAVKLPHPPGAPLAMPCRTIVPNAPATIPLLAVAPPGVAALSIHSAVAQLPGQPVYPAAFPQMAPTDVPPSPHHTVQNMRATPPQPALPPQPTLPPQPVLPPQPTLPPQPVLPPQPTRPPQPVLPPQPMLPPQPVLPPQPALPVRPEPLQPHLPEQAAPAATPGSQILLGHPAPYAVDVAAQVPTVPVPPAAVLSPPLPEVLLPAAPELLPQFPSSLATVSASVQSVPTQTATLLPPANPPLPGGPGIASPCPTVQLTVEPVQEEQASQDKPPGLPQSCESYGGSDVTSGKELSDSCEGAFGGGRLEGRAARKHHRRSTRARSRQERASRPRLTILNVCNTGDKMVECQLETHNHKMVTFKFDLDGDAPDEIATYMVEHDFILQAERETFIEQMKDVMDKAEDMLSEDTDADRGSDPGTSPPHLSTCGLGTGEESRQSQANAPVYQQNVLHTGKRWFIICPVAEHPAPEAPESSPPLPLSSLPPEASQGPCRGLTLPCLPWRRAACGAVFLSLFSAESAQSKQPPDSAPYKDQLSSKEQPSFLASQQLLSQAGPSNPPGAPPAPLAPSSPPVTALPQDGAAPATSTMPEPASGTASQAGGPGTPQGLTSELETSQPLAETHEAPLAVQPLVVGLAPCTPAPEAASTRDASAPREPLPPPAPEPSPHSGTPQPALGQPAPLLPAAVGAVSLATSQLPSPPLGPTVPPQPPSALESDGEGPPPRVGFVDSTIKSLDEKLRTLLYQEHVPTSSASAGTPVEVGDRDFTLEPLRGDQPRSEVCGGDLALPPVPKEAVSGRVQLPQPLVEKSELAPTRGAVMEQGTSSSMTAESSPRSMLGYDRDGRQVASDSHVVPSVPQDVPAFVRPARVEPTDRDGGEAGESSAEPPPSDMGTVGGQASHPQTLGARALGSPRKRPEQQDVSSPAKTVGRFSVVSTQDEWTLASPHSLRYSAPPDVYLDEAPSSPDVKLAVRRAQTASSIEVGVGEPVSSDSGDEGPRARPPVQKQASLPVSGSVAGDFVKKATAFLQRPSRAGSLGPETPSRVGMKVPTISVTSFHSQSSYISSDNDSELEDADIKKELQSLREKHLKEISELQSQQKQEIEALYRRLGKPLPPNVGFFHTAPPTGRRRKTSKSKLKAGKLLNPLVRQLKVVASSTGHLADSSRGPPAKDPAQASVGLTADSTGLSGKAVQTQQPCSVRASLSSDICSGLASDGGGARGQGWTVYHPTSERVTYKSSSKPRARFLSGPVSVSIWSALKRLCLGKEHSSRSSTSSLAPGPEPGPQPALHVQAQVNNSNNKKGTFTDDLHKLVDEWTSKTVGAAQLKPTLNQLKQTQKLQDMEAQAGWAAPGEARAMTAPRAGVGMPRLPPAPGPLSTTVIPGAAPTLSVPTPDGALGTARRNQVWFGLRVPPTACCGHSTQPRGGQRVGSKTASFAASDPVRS
T18 sequence (P53778 whole entry): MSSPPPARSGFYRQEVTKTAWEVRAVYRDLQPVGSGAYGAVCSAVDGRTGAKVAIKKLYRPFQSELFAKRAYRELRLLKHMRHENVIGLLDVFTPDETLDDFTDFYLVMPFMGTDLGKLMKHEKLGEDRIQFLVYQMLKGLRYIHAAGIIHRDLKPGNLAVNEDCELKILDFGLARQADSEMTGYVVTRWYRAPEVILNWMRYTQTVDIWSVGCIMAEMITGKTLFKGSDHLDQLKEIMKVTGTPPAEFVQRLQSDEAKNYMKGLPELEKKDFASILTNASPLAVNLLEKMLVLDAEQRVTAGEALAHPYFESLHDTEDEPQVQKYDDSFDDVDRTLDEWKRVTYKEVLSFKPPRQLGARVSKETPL
T28 sequence (Q8TDX7 whole entry): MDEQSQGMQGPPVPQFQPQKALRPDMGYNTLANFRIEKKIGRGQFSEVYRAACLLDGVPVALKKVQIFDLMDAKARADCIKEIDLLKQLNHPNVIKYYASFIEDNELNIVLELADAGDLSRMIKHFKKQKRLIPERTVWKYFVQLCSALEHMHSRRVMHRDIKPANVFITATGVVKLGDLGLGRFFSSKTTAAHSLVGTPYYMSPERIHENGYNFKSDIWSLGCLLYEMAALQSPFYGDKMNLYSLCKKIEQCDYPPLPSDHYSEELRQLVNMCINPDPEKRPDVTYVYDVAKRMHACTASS

- Avg POC (SIK): 111% of control
- Avg POC (AURKA): 133% of control
- Avg POC (TSSK1): 99.5% of control
- Avg POC (Rsk2): 134% of control
- Avg POC (Syk): 86.5% of control
- Avg POC (ZAP-70): 100.5% of control
- Avg POC (MuSK): 107.5% of control
- Avg POC (JAK2): 123.5% of control
- Avg POC (PhKgamma2): 110% of control
- Avg POC (Mer): 126.5% of control
- Avg POC (CK1_y): 106% of control
- Avg POC (Hck): 115.5% of control
- Avg POC (IRAK1): 100.5% of control
- Avg POC (FAK2): 107.5% of control
- Avg POC (MKK7beta): 98% of control
- Avg POC (PKCalpha): 106.5% of control
- Avg POC (AKT3): 106.5% of control
- Avg POC (PKD1): 94.5% of control
- Avg POC (p38gamma): 120.5% of control
- Avg POC (JAK3): 102.5% of control
- Avg POC (mTOR): 99% of control
- Avg POC (DAPK3): 91% of control
- Avg POC (GSK3alpha): 120.5% of control
- Avg POC (Tie2): 96% of control
- Avg POC (Yes): 97.5% of control
- Avg POC (WNK3): 99.5% of control
- Avg POC (DAPK1): 114.5% of control
- Avg POC (WNK2): 92.5% of control
- Avg POC (NEK7): 107% of control
- Avg POC (PrKX): 122% of control
- IC50 (TrkA [1]): < 100 nM
- Avg POC (TrkA [2]): 2.5% of control
Structure (SMILES): COCCN1C[C@@H](NC(=O)Nc2sc(C(C)C)nc2-c2ccccc2)[C@H](c2ccccc2)C1 [Example 48, 1-(2-isopropyl-4-phenylthiazol-5-yl)-3-((3S,4R)-1-(2-methoxyethyl)-4-phenylpyrrolidin-3-yl)urea]
